Assay results published in patent US20090202565A1, “TORC POLYNUCLEOTIDES AND POLYPEPTIDES AND METHOD OF USE” (priority 2004, published 2009).
Where no end group is shown, it is not given here.

Tests used:
TORC2-eGFP = TORC2-eGFP nuclear translocation in HEK293 cells, fluorescence microscopy; format: cell-based, human; details: for translocation of TORC2-eGFP to the nucleus: 45 min, 10 nM LMB, 10 uM ionomycin, or both
Protocol: (§1) HEK293 cells are transfected with either pCMV-TORC1-eGFP, pCMV-TORC2-eGFP or pCMV-TORC3-eGFP linearized with AseT restriction endonuclease and stable integrants are selected with 700 ug/ml geneticin generating a population of cells that express TORC-eGFP. These are referred to as 293hTORC1, 293hTORC2 or 293hTORC3 cells, respectively. All of the stable TORC-eGFP cell-lines are subjected to fluorescence activated cell sorting to remove non-fluorescing cells.
(§2) The localization of human TORC2 and TORC3 is also examined. Both HeLa cells and HEK293 cells are transfected with either pCMV-TORC2-eGFP or pCMV-TORC3-eGFP.
(§3) In order to assess this possibility, HeLa cells stably expressing TORC1-eGFP are exposed to either no treatment (FIG. 5, panel A), 50 uM forskolin and 100 uM IBMX (panel B), or 1 mM db-cAMP (panel C) for 2 hours. […] Similarly, HEK293 cells stably expressing TORC2-eGFP (FIG. 5, panels D and E) or TORC3-eGFP (panels F and G) are either untreated (panels D and F) or treated with 25 uM forskolin for 1 hour (panels E and G).

TORC3-eGFP = TORC3-eGFP nuclear translocation in HEK293 cells, fluorescence microscopy; format: cell-based, human; details: for translocation of TORC3-eGFP to the nucleus: 45 min, 10 nM LMB, 10 uM ionomycin, or both
Protocol: as §1, §2, §3

TORC1-eGFP [1] = test: TORC1-eGFP nuclear translocation in stably expressing HEK293 cells; format: cell-based, human; details: stable HEK293; for TORC1-eGFP fluorescence localization: 1 hr, 10 nM LMB alone, 160 nM isoproterenol alone, or isoproterenol plus LMB; for translocation of TORC1-eGFP to the nucleus: 45 min, 10 nM LMB, 10 uM ionomycin, or both
Protocol: as §1
To assess whether TORC translocation is induced by stimulation of endogenous G-protein coupled receptors (GPCRs), HEK293 cells stably expressing various TORC-eGFP fusions are treated with isoproterenol, a β2-adrenergic receptor agonist, for 1 hr.

TORC1-eGFP [2] = test: TORC1 (FLAG-TORC1 / TORC1-eGFP) nuclear translocation in HeLa cells, fluorescence microscopy; format: cell-based, human
Protocol: Generation of stable TORC-eGFP cell lines. HeLa cells are transfected with pCMV-TORC1-eGFP and stable integrants are selected with 700 ug/ml geneticin. A single colony that expressed TORC1-eGFP is isolated and expanded (HhTORC1eGFP cells). […]
HeLa cells are transfected with FLAG-TORC1 (FIG. 1, panels A and B) or TORC1-eGFP (panels C and D). Cells are either untreated (panels A and C) or treated with 10 nM leptomycin-B (LMB), a fungal inhibitor of CRM1 mediated nuclear export of proteins, for 90 min (panels B and D). FLAG-tagged protein is visualized by immunofluorescence while eGFP-tagged proteins are directly visualized by fluorescence. […] Since a variety of signal transduction proteins are regulated by either nuclear export or stimulus induced import, the localization of TORC1 is examined after treatment with LMB. […]

dTORC-eGFP = dTORC-eGFP translocation in Drosophila larval salivary glands; format: cell-based; details: 5 uM ionomycin 1 hour; 100 uM db-cAMP 4 hours
Protocol: Drosophila Methods. The Gal4 responder construct, UAS-GFP-TORC, is created by PCR cloning the eGFP gene from the pEGFP—N1 vector (Clontech # 6085-1) and the dTORC gene from Drosophila genomic DNA into the pUAST vector (Brand and Perrimon, 1993). This construct is injected into Drosophila embryos by P-element germline transformation to create transgenic lines (Rubin and Spradling, 1982). To induce expression of the fusion protein, flies containing UAS-GFP-TORC are crossed to flies containing the HS-Gal4 construct obtained from the Bloomington Stock Center, University of Indiana, Bloomington, Ind. The larvae are heat-shocked at […] and salivary glands from late third instar larvae were dissected in PBS, placed in Sang M3 media (Sigma #S3652) containing various chemical treatments in a 96-well plate. The glands are visualized using the Nikon Eclipse TE2000-E fluorescent microscope. Images are taken at a 100× magnification.
A fusion of eGFP and the Drosophila TORC (dTORC) protein is generated. […] Salivary glands dissected from transgenic larvae expressing the dTORC fusion protein are examined by microscopy. dTORC-eGFP is localized in the cytoplasm in all of the cells in the gland (FIG. 17, panels A and D). […] Thus, the localization of TORC in Drosophila is regulated by cAMP and calcium, just as in human cells. […]

CRE-driven luciferase = test: CRE-dependent luciferase reporter in HeLa and HeLa::TORC1-eGFP cells; format: cell-based; details: 18 hours; for activation of CRE-driven luciferase in naïve HeLa cells: 5 uM ionomycin, 10 uM PMA
Excerpt: To determine the effect of TORC1 over-expression and localization on gene expression, CRE-dependent transcription is compared in untransfected HeLa cells and HeLa cells stably expressing TORC1-eGFP using a luciferase reporter containing a CRE-dependent promoter.

CRE-luciferase [3] = test: CRE-luciferase reporter with dominant negative TORC1(1-44)-eGFP in HeLa cells; format: cell-based
Excerpt: The siRNA results (Example 12) are complicated by the need to use multiple siRNAs and to block multiple TORCs. In order to efficiently block activity of all TORC proteins more readily, a dominant interfering TORC protein is designed which fuses the highly conserved 44 amino-acid CREB-binding domain of TORC1 to eGFP (T1-44eGFP). To block activity of all TORC proteins efficiently, a dominant interfering protein that should specifically block the ability of all TORC's to interact with CREB1 is designed. The CREB1 interaction domain of TORC proteins is present in the first 44 amino acids of TORC1. The N-terminal 44 amino acids, representing the first exon of the TORC1 gene, is nearly 100% conserved in virtually all mammalian, C. elegans and Drosophila TORC proteins, yet has virtually no homology or similarity to any other proteins (Tourgenko et al., 2003). […] HeLa cells are transfected with either the eGFP control or TORC1(1-44)-eGFP with either CRE-luciferase (FIG. 16, panel A) or NFKB-luciferase (panel B) prior to stimulation with 50 uM forskolin/100 uM IBMX or 5 uM ionomycin. In panel C, HEK293 cells are transiently transfected with CRE-luciferase and the β2-adrenergic receptor (β2AR) in combination with either the empty CMV vector, eGFP, or TORC1(1-44)-eGFP fusion and exposed to isoproterenol for 18 hours. […] Thus blockade of TORC function also prevents CRE-activation through a Gs-linked GPCR using isoproterenol.

NF-kappaB reporter = test: NFKB-luciferase reporter with dominant negative TORC1(1-44)-eGFP in HeLa cells; format: cell-based
Excerpt: (§4) The siRNA results (Example 12) are complicated by the need to use multiple siRNAs and to block multiple TORCs. In order to efficiently block activity of all TORC proteins more readily, a dominant interfering TORC protein is designed which fuses the highly conserved 44 amino-acid CREB-binding domain of TORC1 to eGFP (T1-44eGFP). To block activity of all TORC proteins efficiently, a dominant interfering protein that should specifically block the ability of all TORC's to interact with CREB1 is designed. The CREB1 interaction domain of TORC proteins is present in the first 44 amino acids of TORC1. The N-terminal 44 amino acids, representing the first exon of the TORC1 gene, is nearly 100% conserved in virtually all mammalian, C. elegans and Drosophila TORC proteins, yet has virtually no homology or similarity to any other proteins (Tourgenko et al., 2003). […] HeLa cells are transfected with either the eGFP control or TORC1(1-44)-eGFP with either CRE-luciferase (FIG. 16, panel A) or NFKB-luciferase (panel B) prior to stimulation with 50 uM forskolin/100 uM IBMX or 5 uM ionomycin. In panel C, HEK293 cells are transiently transfected with CRE-luciferase and the β2-adrenergic receptor (β2AR) in combination with either the empty CMV vector, eGFP, or TORC1(1-44)-eGFP fusion and exposed to isoproterenol for 18 hours. […]

CRE-luciferase [4] = test: CRE-luciferase with β2-adrenergic receptor and isoproterenol in HEK293 cells; format: cell-based; details: HEK293 transiently transfected; isoproterenol 18 hours
Excerpt: as §4

[5] = stable HEK293, 160 nM isoproterenol alone, 1 hr
[6] = transfected HEK293, LMB treatment

Molecule: CC(C)NCC(O)c1ccc(O)c(O)c1 (stereo not drawn) [isoproterenol, Isoproterenol]
- TORC2-eGFP fluorescence localization (TORC2-eGFP; [5]): fluorescence from the nucleus occurs
- TORC3-eGFP fluorescence localization (TORC3-eGFP; [5]): fluorescence from the nucleus occurs
- TORC1-eGFP fluorescence localization (TORC1-eGFP [1]): eGFP fluorescence originating from the cytoplasm

Molecule: CCCC(=O)Nc1ncnc2c1ncn2[C@@H]1O[C@@H]2COP(=O)(O)O[C@H]2[C@H]1OC(=O)CCC [db-cAMP, dibutyryl cyclic-AMP]
- translocation of TORC1-eGFP on raising intracellular cAMP (TORC1-eGFP [2]; HeLa stable TORC1-eGFP, 50 uM forskolin and 100 uM IBMX, or 1 mM db-cAMP, 2 hours): partial translocation of TORC1-eGFP
- translocation of dTORC-eGFP into the nucleus (dTORC-eGFP): induced translocation of dTORC-eGFP into the nucleus

Molecule: CCCCCCCCCCCCCC(=O)O[C@@H]1[C@@H](C)[C@@]2(O)[C@@H](C=C(CO)C[C@]3(O)C(=O)C(C)=C[C@@H]23)[C@@H]2C(C)(C)[C@]12OC(C)=O [PMA, Phorbol 12-myristate 13-acetate]
- accumulation of TORC1-eGFP in the nucleus in response to PMA (TORC1-eGFP [2]; HeLa stable TORC1-eGFP, 10 uM PMA, 1 hour): induced TORC1-eGFP to accumulate in the nucleus
- activation of CRE-driven luciferase in naïve HeLa cells (CRE-driven luciferase): modest level of activation

Molecule: CCC(=C/[C@H](C)C/C=C/C(C)=C/[C@@H](C)C(=O)[C@@H](C)[C@H](O)[C@@H](C)C/C(C)=C/C(=O)O)/C=C/[C@@H]1OC(=O)C=C[C@@H]1C [LMB, Leptomycin B]
- time until TORC2-eGFP becomes predominantly nuclear following LMB exposure (TORC2-eGFP; stable HEK293): ≤ 120 min
- translocation of TORC2-eGFP to the nucleus (TORC2-eGFP; stable HEK293): weak or no translocation to the nucleus
- nuclear accumulation of TORC2-eGFP (TORC2-eGFP; [6]): induces accumulation of both proteins in the nuclei
- time to near complete TORC1 translocation following LMB exposure (TORC1-eGFP [2]; HeLa cells, data not shown): less than 30 minutes
- subcellular localization of TORC1 fusion proteins (TORC1-eGFP [2]; HeLa transfected with FLAG-TORC1 or TORC1-eGFP, 10 nM LMB, 90 min): present predominantly in the nucleus
- TORC1-eGFP translocation (nuclear-cytoplasmic fluorescence difference), positive control of cDNA screen (TORC1-eGFP [2]; HeLa, 384-well plates, Cellomics ArrayScan II): detected in virtually all control wells
- time until TORC3-eGFP becomes predominantly nuclear following LMB exposure (TORC3-eGFP; stable HEK293): approximately 90 min
- translocation of TORC3-eGFP to the nucleus (TORC3-eGFP; stable HEK293): weak or no translocation to the nucleus
- nuclear accumulation of TORC3-eGFP (TORC3-eGFP; [6]): induces accumulation of both proteins in the nuclei
- translocation of TORC1-eGFP to the nucleus (TORC1-eGFP [1]): weak or no translocation to the nucleus
- TORC1-eGFP fluorescence localization (TORC1-eGFP [1]): eGFP fluorescence originating from the cytoplasm
- induction of CRE-driven luciferase (CRE-driven luciferase; 10 nM LMB, naïve HeLa vs HeLa::TORC1-eGFP): significant induction only in the HeLa::TORC1-eGFP cells

Molecule: C[C@H](CCC(=O)O)C[C@H](C)C[C@H](C)C(=O)/C=C(\O)[C@H](C)C[C@H](C)C/C=C/[C@@H](C)[C@@H](O)[C@@H](C)[C@@H](O)C[C@@H]1CC[C@@](C)([C@H]2CC[C@@](C)([C@@H](C)O)O2)O1 [ionomycin]
- translocation of TORC2-eGFP to the nucleus (TORC2-eGFP; stable HEK293): weak or no translocation to the nucleus
- accumulation of TORC1-eGFP in the nucleus in response to calcium (TORC1-eGFP [2]; HeLa stable TORC1-eGFP, 1 uM ionomycin or 10 uM CPA, 1 hour): potently induce accumulation of the TORC1-eGFP in the nucleus
- translocation of dTORC-eGFP into the nucleus (dTORC-eGFP): induced translocation of dTORC-eGFP into the nucleus
- translocation of TORC3-eGFP to the nucleus (TORC3-eGFP; stable HEK293): weak or no translocation to the nucleus
- translocation of TORC1-eGFP to the nucleus (TORC1-eGFP [1]): weak or no translocation to the nucleus
- activation of CRE-driven luciferase in naïve HeLa cells (CRE-driven luciferase): modest level of activation

Molecule: T1(1-44)eGFP: dominant interfering protein fusing the 44 amino-acid CREB-binding domain of TORC1 to eGFP (MATSNNPRKFSEKIALHNQKQAEETAAFEEVMKDLSLTRAARLQ; also: fused to eGFP)
- effect on CRE activation through forskolin/IBMX or ionomycin and PMA (CRE-luciferase [3]; HeLa, 50 uM forskolin/100 uM IBMX or 5 uM ionomycin): potently blocks CRE activation
- effect on activity of all three TORCs on CRE-activation (CRE-luciferase [3]; data not shown): inhibited
- effect on enhanced CRE-response in HhTORC1 cells (CRE-luciferase [3]; data not shown): effectively blocked
- effect on activation of NF-kappaB reporter by ionomycin and PMA (NF-kappaB reporter): no effect on activation of an NF-kappaB reporter
- effect on CRE-luciferase induction by β2AR and isoproterenol (CRE-luciferase [4]): strongly inhibits CRE-luciferase induction
